Like-named read-outs stand apart in the source and are kept apart here.
Key:
M. catarrhalis ATCC25238 = test: Sensitivity test (agar dilution); assay type: cell-based, Moraxella catarrhalis; details: Moraxella catarrhalis
Description: (§1) The antibacterial activities were tested against various 18 bacteria (27 standard strains) which are representative bacteria caused clinically infectious disease (Staphylococcus aureus 3 strains, Staphylococcus epidermidis 1 strain, Micrococcus luteus 1 strain, Streptococcus pyogenes 1 strain, Enterococcus faecalis 1 strain, Enterococcus faecium 1 strain, Bacillus subtilis 1 strain, Escherichia coli 3 strains, Klebsiella pneumoniae 1 strain, Proteus mirabilis 1 strain, Proteus vulgaris 2 strains, Pseudomonas aeruginosa 3 strains, Serratia marcescens 2 strains, Enterobacter aerogenes 1 strain, Stenotrophomonas maltophilia 1 strain, Enterobacter cloacae 1 strain, Citrobacter freundii 1 strain, Moraxella catarrhalis 2 strains).
(§2) According to the standard method of Japan Chemotherapeutic Society (Chemotherapy, vol. […], p 76-79 (1981)) the test was carried out using the agar dilution method. After dissolving test samples in distilled water, agar medium containing the test samples was prepared in such a manner that the final concentration became twice serial dilution by pouring serially diluted combination drug solution or a single drug solution into agar medium. As agar medium was used Mueller Hinton Agar medium (MHA). Then, each strain was cultivated over night at 37° C. in an incubator and suspended in buffered saline solution with gelatin (BSG) in the concentration of about 10^6 CFU/ml. The suspension (about 5 μl) containing test strains was inoculated to the medium containing the test samples by Micro Planter.
(§3) When the sample is subjected to sensitivity test, this mixed solution was diluted by twice serial dilution method.
(§4) Furthermore, when the drug is solely used, each test sample was used as it is, and diluted by twice serial dilution method from the maximum concentration to the minimum concentration.
(§5) FIC index based on MIC value was calculated. […] Namely, when FIC index calculated by the following formula is equal or less than 1, the enhanced effect of the combination drug in said ratio is considered as positive. When FIC index is over 1, the enhanced effect of the combination drug in said ratio is considered as negative.
(§6) Formula of FIC index: FIC index=(MIC of Drug A in combination/MIC of Drug A alone)+(MIC of Drug B in combination/MIC of Drug B alone) N.C. in tables means being not calculated.

E. faecium ATCC19434 = test: Sensitivity test (agar dilution); assay type: cell-based, Enterococcus faecium; details: for MIC: Enterococcus faecium
Description: as §1, §2, §3, §4, §5, §6

E. coli ML1410 RP4 = test: microbe, parasite or virus in culture; assay type: cell-based, Escherichia coli; details: Escherichia coli
Description: as §1, §2, §3, §4, §5, §6

K. pneumoniae ATCC10031 = test: Sensitivity test (agar dilution); assay type: cell-based, Klebsiella pneumoniae; details: Klebsiella pneumoniae
Description: as §1, §2, §3, §4, §5, §6

## C[C@H]1C=C(c2csc(SC3=C(C(=O)O)N4C(=O)[C@H]([C@@H](C)O)[C@H]4[C@H]3C)n2)CN1 [SM, (4R,5S,6S)-6-[(1R)-1-Hydroxyethyl]-4-methyl-3-({4-[(5S)-5-methyl-2,5-dihydro-1H-pyrrol-3-yl]-1,3-thiazol-2-yl}sulfanyl)-7-oxo-1-azabicyclo[3.2.0]hept-2-ene-2-carboxylic acid]
M. catarrhalis ATCC25238; ATCC25238, Concomitant (MEPM:SM = 1:1), read-out: MIC
  MIC: ≤ 16 ng/mL
M. catarrhalis ATCC25238; ATCC25238, Concomitant (MEPM:SM = 1:2), read-out: MIC
  MIC: ≤ 31 ng/mL
M. catarrhalis ATCC25238; ATCC25238, Concomitant (MEPM:SM = 1:4), read-out: MIC
  MIC: ≤ 63 ng/mL
M. catarrhalis ATCC25238; ATCC25238, Concomitant (PAPM:SM = 1:1), M. catarrhalis ATCC25238, read-out: MIC concomitant
  MIC: ≤ 2 ng/mL
M. catarrhalis ATCC25238; ATCC25238, Concomitant (PIPC:SM = 1:1), M. catarrhalis ATCC25238, read-out: MIC concomitant
  MIC: ≤ 2 ng/mL
M. catarrhalis ATCC25238; ATCC25238, Concomitant drug (MEPM:SM = 2:1), read-out: MIC
  MIC: ≤ 8 ng/mL
M. catarrhalis ATCC25238; ATCC25238, drug alone, M. catarrhalis ATCC25238, read-out: MIC alone
  MIC: ≤ 2 ng/mL
E. faecium ATCC19434; ATCC19434, Concomitant (AZT:SM = 1:1), E. faecium ATCC19434, read-out: MIC concomitant
  MIC: 0.125 µg/mL
E. faecium ATCC19434; ATCC19434, Concomitant (BIPM:SM = 1:1), E. faecium ATCC19434, read-out: MIC concomitant
  MIC: 0.25 µg/mL
E. faecium ATCC19434; ATCC19434, Concomitant (CAZ:SM = 1:1), E. faecium ATCC19434, read-out: MIC concomitant
  MIC: 0.125 µg/mL
E. faecium ATCC19434; ATCC19434, Concomitant (CPFX:SM = 1:1), E. faecium ATCC19434, read-out: MIC concomitant
  MIC: 0.25 µg/mL
E. faecium ATCC19434; ATCC19434, Concomitant (DRPM:SM = 1:1), E. faecium ATCC19434, read-out: MIC concomitant
  MIC: 0.25 µg/mL
E. faecium ATCC19434; ATCC19434, Concomitant (IPM:SM = 1:1), read-out: MIC
  MIC: 0.125 µg/mL
E. faecium ATCC19434; ATCC19434, Concomitant (MEPM:SM = 1:1), read-out: MIC
  MIC: 0.125 µg/mL
E. faecium ATCC19434; ATCC19434, Concomitant (MEPM:SM = 1:2), read-out: MIC
  MIC: 0.25 µg/mL
E. faecium ATCC19434; ATCC19434, Concomitant (MEPM:SM = 1:4), read-out: MIC
  MIC: 0.125 µg/mL
E. faecium ATCC19434; ATCC19434, Concomitant (PAPM:SM = 1:1), E. faecium ATCC19434, read-out: MIC concomitant
  MIC: 0.125 µg/mL
E. faecium ATCC19434; ATCC19434, Concomitant (PIPC:SM = 1:1), E. faecium ATCC19434, read-out: MIC concomitant
  MIC: 0.125 µg/mL
E. faecium ATCC19434; ATCC19434, Concomitant drug (MEPM:SM = 2:1), read-out: MIC
  MIC: 0.25 µg/mL
E. faecium ATCC19434; ATCC19434, alone, read-out: MIC
  MIC: 0.25 µg/mL
E. faecium ATCC19434; ATCC19434, drug alone, E. faecium ATCC19434, read-out: MIC alone
  MIC: 0.25 µg/mL
E. faecium ATCC19434; drug alone, E. faecium ATCC19434
  MIC alone: 0.125 µg/mL
E. coli ML1410 RP4; ML1410RP4, Concomitant (IPM:SM = 1:1)
  MIC: 0.125 µg/mL
E. coli ML1410 RP4; ML1410RP4, Concomitant (MEPM:SM = 1:1)
  MIC: ≤ 0.016 µg/mL
E. coli ML1410 RP4; ML1410RP4, Concomitant (MEPM:SM = 1:2)
  MIC: ≤ 0.031 µg/mL
E. coli ML1410 RP4; ML1410RP4, Concomitant (MEPM:SM = 1:4)
  MIC: ≤ 0.063 µg/mL
E. coli ML1410 RP4; ML1410RP4, Concomitant drug (MEPM:SM = 2:1)
  MIC: ≤ 0.008 µg/mL
E. coli ML1410 RP4; ML1410RP4, alone
  MIC: 0.5 µg/mL
E. coli ML1410 RP4; ML1410RP4, read-out: MIC alone, drug alone, E. coli ML1410 RP4
  MIC: 0.5 µg/mL
E. coli ML1410 RP4; ML1410RP4, read-out: MIC concomitant, Concomitant (AZT:SM = 1:1), E. coli ML1410 RP4
  MIC: 0.063 µg/mL
E. coli ML1410 RP4; ML1410RP4, read-out: MIC concomitant, Concomitant (BIPM:SM = 1:1), E. coli ML1410 RP4
  MIC: 0.125 µg/mL
E. coli ML1410 RP4; ML1410RP4, read-out: MIC concomitant, Concomitant (CAZ:SM = 1:1), E. coli ML1410 RP4
  MIC: 0.125 µg/mL
E. coli ML1410 RP4; ML1410RP4, read-out: MIC concomitant, Concomitant (CPFX:SM = 1:1), E. coli ML1410 RP4
  MIC: 0.25 µg/mL
E. coli ML1410 RP4; ML1410RP4, read-out: MIC concomitant, Concomitant (DRPM:SM = 1:1), E. coli ML1410 RP4
  MIC: 0.031 µg/mL
E. coli ML1410 RP4; ML1410RP4, read-out: MIC concomitant, Concomitant (PAPM:SM = 1:1), E. coli ML1410 RP4
  MIC: 0.125 µg/mL
E. coli ML1410 RP4; ML1410RP4, read-out: MIC concomitant, Concomitant (PIPC:SM = 1:1), E. coli ML1410 RP4
  MIC: 0.5 µg/mL
K. pneumoniae ATCC10031; ATCC10031, Concomitant (AZT:SM = 1:1), K. pneumoniae ATCC10031, read-out: MIC concomitant
  MIC: 4 ng/mL
K. pneumoniae ATCC10031; ATCC10031, Concomitant (BIPM:SM = 1:1), K. pneumoniae ATCC10031, read-out: MIC concomitant
  MIC: 16 ng/mL
K. pneumoniae ATCC10031; ATCC10031, Concomitant (CAZ:SM = 1:1), K. pneumoniae ATCC10031, read-out: MIC concomitant
  MIC: 8 ng/mL
K. pneumoniae ATCC10031; ATCC10031, Concomitant (CPFX:SM = 1:1), K. pneumoniae ATCC10031, read-out: MIC concomitant
  MIC: ≤ 2 ng/mL
K. pneumoniae ATCC10031; ATCC10031, Concomitant (DRPM:SM = 1:1), K. pneumoniae ATCC10031, read-out: MIC concomitant
  MIC: 8 ng/mL
K. pneumoniae ATCC10031; ATCC10031, Concomitant (IPM:SM = 1:1), read-out: MIC
  MIC: 31 ng/mL
K. pneumoniae ATCC10031; ATCC10031, Concomitant (MEPM:SM = 1:1), read-out: MIC
  MIC: ≤ 16 ng/mL
K. pneumoniae ATCC10031; ATCC10031, Concomitant (MEPM:SM = 1:2), read-out: MIC
  MIC: ≤ 31 ng/mL

Reference: patent publication US20090018111A1, “Novel Antimicrobial Medicament” (priority 2004, published 2009)
